Measurements published in patent publication EP4722203A1, “3,4-DIHYDROPHTHALAZIN-1(2H)-ONE DERIVATIVE, AND PREPARATION METHOD THEREFOR AND USE THEREOF” (Academy of Military Medical Sciences, priority 2023, dated 2024).

How the values were obtained:
Format in all cases: cell-based
RPMI-8226 cells = assay: Antiproliferative activity, CCK-8 assay; details: Homo sapiens, 144 hours incubation, CCK-8, absorbance at 450 nm
[1] = tested on: NCI-H929-pomalidomide-R cells; assay: Antiproliferative activity against resistant cells, CCK-8 assay; details: Homo sapiens, 144 hours incubation
Method: (§1) In this example, lenalidomide-resistant human multiple myeloma cells, including NCI-H929 (NCI-H929-Lenalidomide-R) and RPMI-8226 (RPMI-8226-Lenalidomide-R), and pomalidomide-resistant human multiple myeloma cells, including NCI-H929 (NCI-H929-pomalidomide-R) and RPMI-8226 (RPMI-8226-pomalidomide-R), were selected as cell models to determine the inhibitory activity of compound I-8 of the present invention against the proliferation of the resistant cells.
(§2) • ① I-8 was dissolved in DMSO to prepare a 10 mM stock solution. Compounds used within three months should be stored at room temperature in a desiccator; others could be stored at -20°C for long-term storage. • ② The I-8 stock solution and the reference compounds lenalidomide and pomalidomide were all diluted with DMSO. Their initial concentrations were 10 µM. In the experiments of lenalidomide-resistant human multiple myeloma cells (NCI-H929 (NCI-H929-Lenalidomide-R) and RPMI-8226 (RPMI-8226-Lenalidomide-R) and pomalidomide-resistant human multiple myeloma cells (NCI-H929 (NCI-H929-pomalidomide-R) and RPMI-8226 (RPMI-8226-pomalidomide-R), 3-fold serial dilution with 11 concentration points was performed, with the lowest concentration of […]. The resulting solutions were shaken on a shaker for 5 minutes.
(§3) • ① The NCI-H929-Lenalidomide-R, RPMI-8226-Lenalidomide-R, NCI-H929-pomalidomide-R, and RPMI-8226-pomalidomide-R cells in logarithmic growth phase were inoculated in a 96-well plate, 20,000 to 30,000 cells per well, and the plate was pre-cultured for 24 hours in an incubator (at 37°C and 5% CO2). • ® The culture medium in the plate was replaced, and the compounds and the positive controls with corresponding concentrations were added to the plated at a volume of 50 µL. • ③ The plate was incubated for 144 hours in an incubator, then 15 µL of CCK-8 solution was added to each well, and the plate was incubated in the incubator for another 1-4 hours. • ④ The absorbance at 450 nm was measured using a microplate reader.
(§4) • ① Calculating % Inhibition: [formula] • ② Calculating IC50 value of compound and plotting dose-response curve: The IC50 value was calculated by fitting the % Inhibition and the logarithm of compound concentration to a nonlinear regression (dose response-variable slope) by using GraphPad 6.0. Y = Bottom + (Top−Bottom)/(1+10^(∧)((LogIC50−X)*HillSlope)) [formula] X: log of inhibitor concentration; Y: % Inhibition.
(§5) After calculating % Inhibition, a dose-response curve was plotted with the logarithm of the test compound concentration as the x-axis and the average cell viability as the y-axis, and the IC50 value was obtained by fitting.

[2] = tested on: RPMI-8226-pomalidomide-R cells; assay: as above; details: Homo sapiens, 144 hours incubation
Method: as §1, §2, §3, §4, §5

[3] = tested on: NCI-H929-Lenalidomide-R cells; assay: as above; details: Homo sapiens, 144 hours incubation
Method: as §1, §2, §3, §4, §5

Row | IC50 (RPMI-8226 cells) | IC50 [1] | IC50 [2] | IC50 [3] | SMILES
1 | 0.308 µM | 0.095 µM | 0.314 µM | 0.055 µM | CN1Cc2c(NCc3ccc(CN4CCN(c5ccc(C#N)c(F)c5)CC4)cc3)cccc2C(=O)N1C1CCC(=O)NC1=O (centres unmarked) [I-8]
2 | 0.729 µM | > 100 µM | > 100 µM | > 100 µM | Nc1cccc2c1C(=O)N(C1CCC(=O)NC1=O)C2=O (centres unmarked) [Pomalidomide, reference compound]
